In paper PMC7269146, “Jingzhaotoxin-X, a gating modifier of Kv4.2 and Kv4.3 potassium channels purified from the venom of the Chinese tarantula Chilobrachys jingzhao” (The Journal of Venomous Animals and Toxins Including …, 2020):
Where a SMILES comes first, the peptide text is derived from it. Bridges are numbered along the chain shown (N, C = ends).

Biological target: T1, Kv4.2 (Rattus norvegicus, UniProt Q63881)
T1 construct: expressed in transfected cells; host or cells: HEK293t
T1 sequence (Q63881 1-630): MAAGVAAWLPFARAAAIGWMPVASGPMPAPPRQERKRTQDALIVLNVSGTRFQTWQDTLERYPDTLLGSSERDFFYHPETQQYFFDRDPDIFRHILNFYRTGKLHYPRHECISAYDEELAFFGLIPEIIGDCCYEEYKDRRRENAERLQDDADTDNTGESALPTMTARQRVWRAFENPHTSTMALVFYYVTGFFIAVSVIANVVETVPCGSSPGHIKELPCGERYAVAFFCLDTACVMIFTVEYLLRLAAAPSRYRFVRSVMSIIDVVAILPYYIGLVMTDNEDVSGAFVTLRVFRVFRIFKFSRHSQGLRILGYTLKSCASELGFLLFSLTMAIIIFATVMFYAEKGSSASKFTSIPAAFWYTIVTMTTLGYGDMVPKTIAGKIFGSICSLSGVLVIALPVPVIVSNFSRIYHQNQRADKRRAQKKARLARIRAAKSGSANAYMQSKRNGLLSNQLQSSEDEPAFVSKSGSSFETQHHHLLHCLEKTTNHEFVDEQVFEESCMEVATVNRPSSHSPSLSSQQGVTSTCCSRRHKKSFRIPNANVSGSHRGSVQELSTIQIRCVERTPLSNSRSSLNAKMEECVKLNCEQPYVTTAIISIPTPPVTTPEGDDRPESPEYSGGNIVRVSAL
Test: current-voltage relationship / activation, Kv4.2
Type: cell-based
From the text: Rat cDNA genes encoding Kv4.2 (Accession: NM_031730.2) and Kv4.3 (Accession: AB003587.1) were subcloned to vector pcDNA3.1. In addition, human cDNA genes encoding Nav1.7 (Accession: DQ857292.1) and Nav1.5 (Accession: AB158469.2) were subcloned to vectors pcDNA3.1-mod and pcDNA3.1, separately. Then, Kv4.2, Kv4.3, Nav1.5 and Nav1.7 constructs were transiently transfected into the human embryonic kidney 293t (HEK293t) cells using lipofectamine 2000 (Invitrogen, USA) in accordance with manufacturer protocols. Thereafter, HEK293 cells were inoculated within Dulbecco’s modified Eagle’s medium (DMEM) containing 10% fetal bovine serum (FBS) at 5% CO2 and 37°C. The Kv4.3 channel and the Kv4.2 counterpart were then transfected in the absence of β subunit. Subsequently, cells were incubated with a DNA-lipofectamine mixture (one reporter plasmid for green fluorescence protein and channel constructs) for 4-6 h, and were washed with the fresh medium.
An EPC-10 patch-clamp amplifier (HEKA, Germany) was employed to record the potassium currents at the configuration of whole-cell patch-clamp under an ambient temperature of 22-25°C. The resistance was 2.0-3.0 MΩ when the recording pipette contained a full volume of internal solution (supplemented with 140 mM KCl, 10 mM HEPES, 2.5 mM MgCl2, 5 mM ATP and 11 mM EGTA). KOH was utilized to adjust the pH to 7.2, while sucrose was employed to adjust the osmolarity to 310 mOsm/L. The culture medium was replaced with an external solution containing 150 mM NaCl, 2.5 mM CaCl2, 10 mM HEPES, 2 mM MgCl2, 5 mM KCl, and 10 mM D-glucose. Similarly, sucrose and NaOH were applied to adjust the osmolarity to 330 mOsm/L and pH to 7.4. […] The series resistance was maintained at about 5 MΩ, with 65-70% compensation. Finally, the leakage currents and linear capacitance were subtracted digitally according to the P/4 protocol.
The voltage-dependent inhibition of Kv4.2 and Kv4.3 channels by JZTX-X was determined by the depolarizing pulses to potentials in 10 mV steps from −80 to +60 mV at an interval of 10 s and the holding potential of -80 mV. […] For quantifying the voltage-depending inhibition of Kv4.2 and Kv4.3 channels, the relative current was drawn based on the membrane potential. Under control conditions, those threshold potentials to initially activate Kv4.2 and Kv4.3 currents were around -40 mV. The JZTX-X treatment at 500 nM inhibited the Kv4.2 and Kv4.3 currents, and then the I-V relation shifted to the right by about 30 mV (from -39.5 ± 1.9 mV to -11.3 ± 1.2 mV ) and 40 mV (from -39.8 ± 1.5 mV to -2.5 ± 0.9 mV ), separately (Fig. 5C and D). Additionally, the channel conductance also shifted rightward by around 30 mV (data not shown).
Figure 5. Effects of JZTX-X on I-V relationships in Kv4.2 and Kv4.3 channels: Each cell was held at the voltage of -80 mV, and the […] current families were induced at the depolarization steps of 300 ms to different potentials (range, -80 mV to +60 mV at 10 mV increments). […] ( C ) and ( D ) represented I-V relation for Kv4.2 (C) and Kv4.3 (D) currents before (filled circles) and after 100 nM (open circles) or 500 nM (filled inverted triangles) JZTX-X treatment, respectively. ( E ) and ( F ) represented the fractional suppression on Kv4.2 (E) and Kv4.3 (F) currents after 100 nM (filled circles) and 500 nM (open circles) JZTX-X treatment, respectively. All data were expressed as mean ± S.E.M (n = 5-7 cells).

In the case of `CC(C)C[C@@H]1NC(=O)[C@H](CCCCN)NC(=O)[C@H](Cc2ccc(O)cc2)NC(=O)[C@@H]2CSSC[C@@H]3NC(=O)[C@H](Cc4ccc(O)cc4)NC(=O)[C@H](Cc4ccccc4)NC(=O)CNC(=O)[C@H](C)NC(=O)[C@H](CSSC[C@H](NC(=O)[C@@H](N)CC(C)C)C(=O)N[C@@H](CO)C(=O)N[C@@H](CCCNC(=N)N)C(=O)N[C@@H](CCC(=O)O)C(=O)NCC(=O)N[C@@H](CCC(=O)O)C(=O)N[C@@H](Cc4ccccc4)C(=O)N2)NC(=O)[C@H](CSSC[C@@H](C(=O)N[C@@H](Cc2ccc(O)cc2)C(=O)N[C@@H](CCCNC(=N)N)C(=O)N[C@@H](CC(N)=O)C(=O)O)NC(=O)[C@H](Cc2c[nH]cn2)NC(=O)[C@H](CC(C)C)NC(=O)[C@H](C(C)C)NC(=O)[C@H](Cc2ccccc2)NC(=O)[C@H](C)NC(=O)[C@H](CCCCN)NC3=O)NC(=O)[C@H](CCCCN)NC(=O)[C@H](CCCNC(=N)N)NC1=O` [JZTX-X, Jingzhaotoxin-X] (H-LCSREGEFCYKLRKCCAGFYCKAFVLHCYRN-OH; disulfide 2-16, 9-21, 15-28; N-terminus assumed), the “reduction of Kv4.2 currents over voltage range” value (100 nM, -80 to +60 mV in 10 mV steps) is reported as “reduced the currents of Kv4.2 channels throughout the whole voltage range”, the “I-V relation potential after toxin, Kv4.2” value (500 nM, control -39.5 ± 1.9 mV, holding -80 mV, n = 5-7 cells) is reported as -11.3 ± 1.2 mV and the “rightward shift of I-V relation, Kv4.2” value (500 nM, holding -80 mV) is reported as “about 30 mV”. The “rightward shift of channel conductance, Kv4.2” value (data not shown, channel not named separately) was “about 30 mV” and the “voltage dependence of Kv4.2 inhibition” value (test potentials -10 to +60 mV, 100 nM and 500 nM) was “dependent on voltage”.
